From patent US9914732B2, “Diazabicyclo[4.3.1]decane derivatives for treatment of psychiatric disorders” (Max-Planck-Gesellschaft zur Forderung der Wissenschaften …, priority 2014, dated 2018)

How the values were obtained:
FKBP52 = target: T1, FKBP52 (Homo sapiens, UniProt Q02790); test: Fluorescence polarization (FP) assay, binding to the FK506-binding domain of FKBP52; conditions: FK506-binding domain of FKBP52 (FKBP52FK1), competition with fluorescent ligand 2b
T1 sequence (Q02790 50-138 limits assumed): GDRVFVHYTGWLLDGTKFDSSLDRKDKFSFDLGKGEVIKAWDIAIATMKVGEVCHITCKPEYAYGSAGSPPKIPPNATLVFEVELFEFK
Description: (§1) In the present invention, in vitro fluorescence polarization assays with the compounds of the general formula (I) were performed to determine the binding affinities to FKBP51 and FKBP52 or to the isolated FK506-binding domains of FKBP51 and FKBP52 ([…]). Binding to the isolated FK506-binding domains is reliably indicative of binding to the full length proteins. The affinities for the isolated FK506-binding domains and for full-length FKBP51 or FKBP52 are the same for all compounds tested so far (Kozany et al, ChemBioChem 2009, 10, 1402-1410).
(§2) Example 11: Fluorescence Polarization (FP) Assays
(§3) In-vitro fluorescence polarization assays were performed to determine the binding affinities for FKBP51 and 52 according to a literature procedure (Kozany, C.; Marz, A.; Kress, C.; Hausch, F., Fluorescent probes to characterise FK506-binding proteins. Chembiochem 2009, 10, (8), 1402-10).
(§4) For fluorescence polarization assays the fluorescent ligand 2b was dissolved in HEPES (20 mm, pH 8), Triton-X100 (0.01%), at double the concentration required for the final sample. The target protein was also diluted in this assay buffer at double the highest concentration required for the final sample. This protein stock was used for a 1:1 serial dilution.
(§5) The fluorescent ligand 2b was diluted in assay buffer to a concentration double the final concentration (20 nM 2b). The inventive compound was dissolved in DMSO to reach a 100-times concentrated stock solution. This was used for a 1:1 serial dilution in DMSO. Every sample of this serial dilution was diluted by a factor of 50 in assay buffer supplemented with ligand 2b to achieve a 2× concentrated mixture of ligand 2b and the inventive compound. To this competitive ligand double the protein concentration for 2b assay: FKBP51FK1 560 nM (2×280 nM) or FKBP52FK1 800 nM (2×400 nM) diluted in assay buffer was added.
(§6) The samples were transferred to black 384-well assay plates (No.: 3575; Corning Life Sciences). After incubation at room temperature for 30 min the fluorescence anisotropy was measured (GENios Pro, Tecan, Männedorf, Switzerland) by using an excitation filters of 485/20 nm and emission filters of 535/25 nm. The binding assays were performed in duplicates in the plate format.
(§7) The competition curves were analyzed by using SigmaPlot9. Data were fitted to a four parameter logistic curve to deduce the IC50 values. For the analysis of K1 values, data were fitted to the following equation (Z. X. Wang, FEBS Lett. 1995, 360, 111-114). A=(Amax−Amin)/[L]t×(([L]t×((2×((Klig+Kcomp+[L]t+[I]t−[R]t)^2−3×(Kcomp×([L]t−[R]t)+Klig×([I]t−[R]t)+[…]))^0.5×COS(ARCCOS((−2×(Klig+Kcomp+[L]t+[I]t−[R]t)^3+9×(Klig+Kcomp+[L]t+[I]t−[R]t)×(Kcomp×([L]t−[R]t)+Klig×([I]t−[R]t)+Klig×Kcomp)−27×(−1×Klig×Kcomp×[R]t))/(2×((((Klig+Kcomp+[L]t+[I]t−[R]t)^2−3×(Kcomp×([L]t−[R]t)+Klig×([I]t−[R]t)+Klig×Kcomp))^3)^0.5)))/3))−(Klig+Kcomp+[L]t+[I]t−[R]t)))/((3×Klig)+((2×((Klig+Kcomp+[L]t+[I]t−[R]t)^2−3×(Kcomp×([L]t−[R]t)+Klig×([I]t−[R]t)+Klig×Kcomp))^0.5×COS(ARCCOS((−2×(Klig+Kcomp+[L]t+[I]t−[R]t)^3+9×(Klig+Kcomp+[L]t+[I]t−[R]t)×(Kcomp×([L]t−[R]t)+Klig×([I]t−[R]t)+Klig×Kcomp)−27×(−1×Klig×Kcomp×[R]t))/(2×((((Klig+Kcomp+[L]t+[I]t−[R]t)^2−3×(Kcomp×([L]t−[R]t)+Klig×([I]t−[R]t)+Klig×Kcomp))^3)^0.5)))/3))−(Klig+Kcomp+[L]t+[I]t−[R]t)))+Amin
(§8) In this equation Klig and Kcomp stand for the Kd values of the used tracer or competing inhibitor, [I]t is referring to the total concentration of the titrated inhibitor.

FKBP51 = target: T2, FKBP51 (Homo sapiens, UniProt Q13451); test: Fluorescence polarization (FP) assay, binding to the FK506-binding domain of FKBP51; conditions: FK506-binding domain of FKBP51 (FKBP51FK1), competition with fluorescent ligand 2b
T2 sequence (Q13451 42-130 limits assumed): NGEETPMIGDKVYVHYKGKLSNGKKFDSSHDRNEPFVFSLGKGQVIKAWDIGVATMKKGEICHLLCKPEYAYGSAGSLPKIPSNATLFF
Description: as §1, §2, §3, §4, §5, §6, §7, §8

COc1ccc(OCCN2C[C@H](C[C@H](C)O)C3CCCC(C2=O)N3S(=O)(=O)c2cc(Cl)cc(Cl)c2)cc1OC (single isomer, unassigned) [Compound D4]
Ki (FKBP52): ≤ 100 nM
Ki (FKBP51): ≤ 100 nM

COc1ccc(OCCN2C[C@H](C[C@H](C)O)C3CCCC(C2=O)N3S(=O)(=O)c2cc(Cl)cc(Cl)c2)cc1OC (single isomer, unassigned) [Compound D5]
Ki (FKBP52): ≤ 100 nM
Ki (FKBP51): ≤ 100 nM

COCCN1C[C@H](C(C)O)C2CCCC(C1=O)N2S(=O)(=O)c1cc(Cl)cc(Cl)c1 (stereo in doubt) [Compound B6, (1S,5S,6R)-10-((3,5-dichlorophenyl)sulfonyl)-5-((R)-1-hydroxyethyl)-3-(2-methoxyethyl)-3,10-diazabicyclo[4.3.1]decan-2-one]
Ki (FKBP52): ≤ 100 nM
Ki (FKBP51): ≤ 100 nM

COCCN1CC(CO)C2CCCC(C1=O)N2S(=O)(=O)c1cc(Cl)cc(Cl)c1 (stereo in doubt) [Compound B13, (1S,5R,6R)-10-((3,5-dichlorophenyl)sulfonyl)-5-(hydroxymethyl)-3-(2-methoxyethyl)-3,10-diazabicyclo[4.3.1]decan-2-one]
Ki (FKBP52): 100 to 500 nM
Ki (FKBP51): ≤ 100 nM

COCCN1CC(COC)C2CCCC(C1=O)N2S(=O)(=O)c1cc(Cl)cc(Cl)c1 (stereo in doubt) [Compound B14, (1S,5R,6R)-10-((3,5-dichlorophenyl)sulfonyl)-3-(2-methoxyethyl)-5-(methoxymethyl)-3,10-diazabicyclo[4.3.1]decan-2-one]
Ki (FKBP52): 100 to 500 nM
Ki (FKBP51): ≤ 100 nM

O=C1C2CCCC(C(CO)CN1CCO)N2S(=O)(=O)c1cc(Cl)cc(Cl)c1 (stereo in doubt) [Compound C1, (1S,5R,6R)-10-((3,5-dichlorophenyl)sulfonyl)-3-(2-hydroxyethyl)-5-(hydroxymethyl)-3,10-diazabicyclo[4.3.1]decan-2-one]
Ki (FKBP52): ≤ 100 nM
Ki (FKBP51): ≤ 100 nM

COc1ccc(OCCN2C[C@H](C(C)O)C3CCCC(C2=O)N3S(=O)(=O)c2cc(Cl)cc(Cl)c2)cc1OC (stereo in doubt) [Compound D6, (1S,5S,6R)-10-((3,5-dichlorophenyl)sulfonyl)-3-(2-(3,4-dimethoxyphenoxy)ethyl)-5-((R)-1-hydroxyethyl)-3,10-diazabicyclo[4.3.1]decan-2-one]
Ki (FKBP52): ≤ 100 nM
Ki (FKBP51): ≤ 100 nM

COc1ccc(OCCN2C[C@H](C(C)O)C3CCCC(C2=O)N3S(=O)(=O)c2cc(Cl)cc(Cl)c2)cc1OC (stereo in doubt) [Compound D7, (1S,5S,6R)-10-((3,5-dichlorophenyl)sulfonyl)-3-(2-(3,4-dimethoxyphenoxy)ethyl)-5-((R)-1-hydroxyethyl)-3,10-diazabicyclo[4.3.1]decan-2-one]
Ki (FKBP52): ≤ 100 nM
Ki (FKBP51): ≤ 100 nM

C=CC1CNC(=O)C2CCCC1N2S(=O)(=O)c1cc(Cl)cc(Cl)c1 (stereo in doubt) [Compound I8, (1S,5R,6R)-10-((3,5-dichlorophenyl)sulfonyl)-5-vinyl-3,10-diazabicyclo[4.3.1]decan-2-one]
Ki (FKBP52): 500 to 1000 nM
Ki (FKBP51): 500 to 1000 nM

C=CC1CN(CCCOCc2ccccc2)C(=O)C2CCCC1N2S(=O)(=O)c1cc(Cl)cc(Cl)c1 (stereo in doubt) [Compound J1, (1S,5R,6R)-3-(3-(benzyloxy)propyl)-10-((3,5-dichlorophenyl)sulfonyl)-5-vinyl-3,10-diazabicyclo[4.3.1]decan-2-one]
Ki (FKBP52): 100 to 500 nM
Ki (FKBP51): 100 to 500 nM

C=CC1CN(CCCOC)C(=O)C2CCCC1N2S(=O)(=O)c1cc(Cl)cc(Cl)c1 (stereo in doubt) [Compound J2, (1S,5R,6R)-10-((3,5-dichlorophenyl)sulfonyl)-3-(3-methoxypropyl)-5-vinyl-3,10-diazabicyclo[4.3.1]decan-2-one]
Ki (FKBP52): 500 to 1000 nM
Ki (FKBP51): 500 to 1000 nM

C=CC1CN(Cc2ccccn2)C(=O)C2CCCC1N2S(=O)(=O)c1cc(Cl)cc(Cl)c1 (stereo in doubt) [Compound J4, (1S,5R,6R)-10-((3,5-dichlorophenyl)sulfonyl)-3-(pyridin-2-ylmethyl)-5-vinyl-3,10-diazabicyclo[4.3.1]decan-2-one]
Ki (FKBP52): 100 to 500 nM
Ki (FKBP51): 100 to 500 nM
